In patent EP2070527A1, “Inhibitors of fungal biofilm-formation” (QuoNova Europe GmbH, priority 2007, dated 2009):

Test system: Candida paratropicalis
Experiment: MBEC assay (biofilm inhibition)
Type: cell-based
Details: biofilm grown 24 hours at 37±2°C on pegs, logR = log reduction; for log reduction at 100 µM: test compound 100 µm (so in the source); for log reduction at 10 µM: test compound 10 µM
Procedure: TEST METHOD: MBEC™ Assay The compound to be tested was dissolved in DMSO to obtain a concentration that was 100 times that of the final concentration required (1mM for the 10µM assay and 10mM for the 100µM assay). 1.5 µL of the above solution was placed into each well of a 96 well plate (final volume in each well = 150 µL, final DMSO concentration of 1% (v/v)). To grow the organism and form a biofilm, a cryogenic stock of Candida paratropicalis (at - 70°C) was used. A first sub-culture was streaked out onto TSA (tryptic soy agar), upon which the plate was incubated at 37±2°C for 24 hours and stored wrapped in parafilm at 4 °C afterwards. From this first sub-culture, a second sub-culture was streaked out onto TSA. The plate was incubated at 37±2°C for 24 hours. The second sub-culture was used within 24 hours starting from the time it was first removed from incubation. Using the second sub-culture an inoculum in 3 mL sterile water that matches a 0.5 McFarland Standard (1.5 x 10^8 cells per mL) was created in a glass test tube using a sterile cotton swab. […] of this solution was diluted in 22mL TSB (tryptic soy broth) medium to a cell density of approximately 6.0 x 10^5 cells per mL. The diluted organism was inverted 3-5 times to achieve uniform mixing of the organism. One sample (100µl) of the diluted organism was used for an inoculum check by serially diluting and spot plating on TSA. To prepare a challenge plate, 20 µl of the diluted organism was added to each well of a 96 well plate except the sterility control wells. The test compounds were added to the wells to make up final concentrations of 10 µM and 100 µM (1.5 µL /well) in the designated location in the test plate. 128.5 µL of TSB was placed in each of the wells. 130 µL of media was added to the growth control wells. 128.5 µL of media+ 1.5 µL of DMSO were added to a second set of growth control wells. 150 µL of media was added to the sterility controls. Each sample was run in triplicate. The plate was covered by a lid with a peg per well and wrapped in parafilm and placed on a shaker in a humidified incubator (GeneVac) at 37±2°C for 24 hours set at 110 rpm. Rinse plate(s) of 0.9% saline (200 µL per well) were prepared in a sterile 96 well microtitre plate. Lid-associated pegs were rinsed in 0.9% saline for approximately 1-2 minutes. The peg lid was transferred to the recovery media (1.0% Tween 80 in CAMHB) then sonicated for 30 minutes to dislodge surviving biofilm. Following sonication, 100 µl from each well of the 96 well plate was placed into the first 12 wells of the first row of a 96 well microtiter plate. 180 µl of 0.9% sterile saline was placed in the remaining rows. A serial dilution (10^0-10^-7) was prepared by moving 20 µl down each of the 8 rows. 20µl from each well was removed and spot plated on a prepared TSA. In the remaining recovery plate, 100 µl of fresh growth media (1.0% Tween 80 in CAMHB) was placed in each well to replace the amount removed. The recovery plate was covered with a regular lid and incubated at 37±2°C for 24 hours and read visually to confirm antimicrobial activity of the test compounds. The following compounds have been tested regarding their efficiency (logR = log reduction) against Candida paratropicalis: […]

Structure (SMILES) | log reduction at 100 µM | log reduction at 10 µM
CCCCCCCCCC(=O)CC(=O)N(C)c1ccc(F)cc1 [Example 1] | 0.62 | 
CCCCCCC(=O)CC(=O)Nc1ccno1 [Example 2] | 0.65 | 1.12
CCCCCCCCCC(=O)CC(=O)Nc1ccno1 [Example 3] | 1.1 | 1.26
CCCCCCCCCC(=O)CC(=O)Nc1nc(C)co1 [Example 4] | 1.71 | 
CCCCCCCCCC(=O)CC(=O)N1CCN(C)CC1 [Example 5] | 2.83 | 
CCCCCCCCCC(=O)CC(=O)N1CCC(N(C)C)C1 (centres unmarked) [Example 6] | 3.87 | 
